Measurements: ChEMBL document CHEMBL3885881, “DrugMatrix”

Organism: Rattus norvegicus
Assay: DrugMatrix - Regimen: Daily Repeat
Type: toxicity, organism-based, Sprague-Dawley
Parameters: regimen Daily Repeat, gender Male, age 6-8 weeks
Conditions: in vivo, po, 0 mg/kg, route oral GAVAGE, dose level Control, vehicle 100 % WATER; for ABSOLUTE BASOPHIL / ABSOLUTE EOSINOPHIL / ABSOLUTE LYMPHOCYTE / ABSOLUTE MONOCYTE / ABSOLUTE SEGMENTED NEUTROPHIL / BASOPHIL / EOSINOPHIL / ERYTHROCYTE COUNT / HEMATOCRIT / HEMOGLOBIN / LEUKOCYTE COUNT / LYMPHOCYTE / MEAN CORPUSCULAR HEMOGLOBIN / MEAN CORPUSCULAR HEMOGLOBIN CONCENTRATION / MEAN CORPUSCULAR VOLUME / MONOCYTE / NEUTROPHIL / NUCLEATED RED BLOOD CELLS / PLATELET COUNT: tissue Blood; for ALANINE AMINOTRANSFERASE / ALBUMIN / ALKALINE PHOSPHATASE / ASPARTATE AMINOTRANSFERASE / BLOOD UREA NITROGEN / CARBON DIOXIDE / CHLORIDE / CHOLESTEROL / CREATINE PHOSPHOKINASE / CREATININE / GLUCOSE / LACTATE DEHYDROGENASE / LIPASE / PHOSPHORUS / POTASSIUM / SODIUM / TOTAL BILIRUBIN / TOTAL PROTEIN / URIC ACID: tissue Plasma

SMILES: Cc1cc(NS(=O)(=O)c2ccc(N)cc2)no1 [SULFAMETHOXAZOLE]
- ABSOLUTE BASOPHIL (72 h, time 3 day): 0 CELLS/uL
- ABSOLUTE EOSINOPHIL (72 h, time 3 day): 102 CELLS/uL
- ABSOLUTE LYMPHOCYTE (72 h, time 3 day): 12758 CELLS/uL
- ABSOLUTE MONOCYTE (72 h, time 3 day): 197.17 CELLS/uL
- ABSOLUTE SEGMENTED NEUTROPHIL (72 h, time 3 day): 1259.5 CELLS/uL
- BASOPHIL (72 h, time 3 day): 0%
- EOSINOPHIL (72 h, time 3 day): 0.83%
- ERYTHROCYTE COUNT (72 h, time 3 day): 5.3 x10E6/uL
- HEMATOCRIT (72 h, time 3 day): 33.47%
- HEMOGLOBIN (72 h, time 3 day): 13.12 G/DL
- LEUKOCYTE COUNT (72 h, time 3 day): 14.32 x10E3/uL
- LYMPHOCYTE (72 h, time 3 day): 89.33%
- MEAN CORPUSCULAR HEMOGLOBIN (72 h, time 3 day): 24.8 pg
- MEAN CORPUSCULAR HEMOGLOBIN CONCENTRATION (72 h, time 3 day): 39.18 G/DL
- MEAN CORPUSCULAR VOLUME (72 h, time 3 day): 63.25 fL
- MONOCYTE (72 h, time 3 day): 1.33%
- NEUTROPHIL (72 h, time 3 day): 8.5%
- NUCLEATED RED BLOOD CELLS (72 h, time 3 day): 0 /100WBC
- PLATELET COUNT (72 h, time 3 day): 1313.17 x10E3/uL
- ALANINE AMINOTRANSFERASE (72 h, time 3 day): 52.67 u/L
- ALBUMIN (72 h, time 3 day): 4.05 G/DL
- ALKALINE PHOSPHATASE (72 h, time 3 day): 372 u/L
- ASPARTATE AMINOTRANSFERASE (72 h, time 3 day): 82.83 u/L
- BLOOD UREA NITROGEN (72 h, time 3 day): 15 mg/dL
- CARBON DIOXIDE (72 h, time 3 day): 25.67 mmol/L
- CHLORIDE (72 h, time 3 day): 102.17 MEQ/L
- CHOLESTEROL (72 h, time 3 day): 68.83 mg/dL
- CREATINE PHOSPHOKINASE (72 h, time 3 day): 285 u/L
- CREATININE (72 h, time 3 day): 0.18 mg/dL
- GLUCOSE (72 h, time 3 day): 149.17 mg/dL
- LACTATE DEHYDROGENASE (72 h, time 3 day): 263.83 u/L
- LIPASE (72 h, time 3 day): 10.17 u/L
- PHOSPHORUS (72 h, time 3 day): 12.58 mg/dL
- POTASSIUM (72 h, time 3 day): 6.58 MEQ/L
- SODIUM (72 h, time 3 day): 144.22 MEQ/L
- TOTAL BILIRUBIN (72 h, time 3 day): 0.22 mg/dL
- TOTAL PROTEIN (72 h, time 3 day): 5.83 G/DL
- URIC ACID (72 h, time 3 day): 1.58 mg/dL
- ABSOLUTE BASOPHIL (120 h, time 5 day): 0 CELLS/uL
- ABSOLUTE EOSINOPHIL (120 h, time 5 day): 24 CELLS/uL
- ABSOLUTE LYMPHOCYTE (120 h, time 5 day): 11134.17 CELLS/uL
- ABSOLUTE MONOCYTE (120 h, time 5 day): 56.33 CELLS/uL
- ABSOLUTE SEGMENTED NEUTROPHIL (120 h, time 5 day): 1235.5 CELLS/uL
- BASOPHIL (120 h, time 5 day): 0%
- EOSINOPHIL (120 h, time 5 day): 0.17%
- ERYTHROCYTE COUNT (120 h, time 5 day): 5.68 x10E6/uL
- HEMATOCRIT (120 h, time 5 day): 35.72%
- HEMOGLOBIN (120 h, time 5 day): 13.93 G/DL
- LEUKOCYTE COUNT (120 h, time 5 day): 12.45 x10E3/uL
- LYMPHOCYTE (120 h, time 5 day): 89.5%
- MEAN CORPUSCULAR HEMOGLOBIN (120 h, time 5 day): 24.63 pg
- MEAN CORPUSCULAR HEMOGLOBIN CONCENTRATION (120 h, time 5 day): 39.13 G/DL
- MEAN CORPUSCULAR VOLUME (120 h, time 5 day): 62.97 fL
- MONOCYTE (120 h, time 5 day): 0.5%
- NEUTROPHIL (120 h, time 5 day): 9.83%
- NUCLEATED RED BLOOD CELLS (120 h, time 5 day): 0 /100WBC
- PLATELET COUNT (120 h, time 5 day): 1204 x10E3/uL
- ALANINE AMINOTRANSFERASE (120 h, time 5 day): 59.5 u/L
- ALBUMIN (120 h, time 5 day): 4.38 G/DL
- ALKALINE PHOSPHATASE (120 h, time 5 day): 415.67 u/L
- ASPARTATE AMINOTRANSFERASE (120 h, time 5 day): 91.33 u/L
- BLOOD UREA NITROGEN (120 h, time 5 day): 17 mg/dL
- CARBON DIOXIDE (120 h, time 5 day): 26.33 mmol/L
- CHLORIDE (120 h, time 5 day): 104.17 MEQ/L
- CHOLESTEROL (120 h, time 5 day): 77 mg/dL
- CREATINE PHOSPHOKINASE (120 h, time 5 day): 249.67 u/L
- CREATININE (120 h, time 5 day): 0.21 mg/dL
- GLUCOSE (120 h, time 5 day): 148.33 mg/dL
- LACTATE DEHYDROGENASE (120 h, time 5 day): 168.5 u/L
- LIPASE (120 h, time 5 day): 10.17 u/L
- PHOSPHORUS (120 h, time 5 day): 12.92 mg/dL
- POTASSIUM (120 h, time 5 day): 7.09 MEQ/L
- SODIUM (120 h, time 5 day): 148.37 MEQ/L
- TOTAL BILIRUBIN (120 h, time 5 day): 0.23 mg/dL
- TOTAL PROTEIN (120 h, time 5 day): 6.3 G/DL
- URIC ACID (120 h, time 5 day): 1.77 mg/dL
